Reference: US20200017495A1, “NOVEL HETEROCYCLIC COMPOUNDS AND THEIR USE IN PREVENTING OR TREATING BACTERIAL INFECTIONS” (priority 2017, published 2020)

Key:
Format in all cases: cell-based
[1] = test system: Klebsiella oxytoca (KOX) isolates; assay: MIC of compounds alone and combined with antibacterials, broth microdilution (CLSI)
Method: (§1) Method 2: MIC of Compounds Alone and Combined with Antibacterials Against Bacterial Isolates
(§2) Compounds of the present invention were assessed against genotyped bacterial strains (Table 3, 4) alone or in combination with an antibacterial (Table 2). […] Log phase bacterial suspensions were adjusted to a final density of 5.10^5 CFU/mL in cation-adjusted Mueller-Hinton broth (ca-MHB; Becton-Dickinson and Company) and added to each well (98 μL). Microplates were incubated for 16-20 h at 35° C. in ambient air. The MIC of the compounds was defined as the lowest concentration of said compounds that prevented bacterial growth as read by visual inspection. The MIC of ATB at each compound concentration was defined as the lowest concentration of ATB that prevented bacterial growth as read by visual inspection.

[2] = test system: Enterobacter aerogenes (EAE) isolates; assay: as above
Method: as §1, §2

[3] = test system: Proteus mirabilis (PMI) isolates; assay: microbe, parasite or virus in culture
How it was run: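 First, log-phase suspensions are brought to 5.10^5 CFU/mL final in ca-MHB; plates then incubate 16-20 h at 35° C in air. Growth is judged visually, giving the compound MIC alone and the antibacterial MIC at each compound concentration.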

In the case of `C=CC1=C(C(=O)O)N2C(=O)[C@@H](NC(=O)/C(=N\OCC(=O)O)c3csc(N)n3)[C@H]2SC1` [FIX, Cefixime], the “MIC ATB in combination” value ([1]; KOX UFR21, AF2 @ 8 μg/mL) is reported as 2 µg/mL, the “MIC ATB in combination” value ([1]; KOX UFR21, AF3 @ 8 μg/mL) is reported as 4 µg/mL and the “MIC ATB in combination” value ([1]; KOX UFR173, AF2 @ 8 μg/mL) is reported as “<=0.25 μg/mL”. The “MIC ATB in combination” value ([1]; KOX UFR173, AF3 @ 8 μg/mL) was “<=0.25 μg/mL”, the “MIC ATB in combination” value ([1]; KOX UFR173, CLA @ 4 μg/mL) was 4 µg/mL and the “MIC ATB in combination” value ([1]; KOX UFR223, AF2 @ 8 μg/mL) was <0.25 µg/mL. The “MIC ATB in combination” value ([1]; KOX UFR223, AF3 @ 8 μg/mL) was <0.25 µg/mL, the “MIC ATB in combination” value ([1]; KOX UFR223, CLA @ 4 μg/mL) was “<=0.25 μg/mL” and the “MIC ATB in combination” value ([1]; KOX UFR224, AF2 @ 8 μg/mL) was <0.25 µg/mL. For the same molecule, the “MIC ATB in combination” value ([1]; KOX UFR224, AF3 @ 8 μg/mL) was <0.25 µg/mL, the “MIC ATB in combination” value ([1]; KOX UFR224, CLA @ 4 μg/mL) was 8 µg/mL and the MIC ([1]; strain KOX UFR21, genotype TEM-1, CTX-M-15, OXA-48) was >128 µg/mL. For the same molecule, the MIC ([1]; strain KOX UFR173, genotype OXY2-2) was 16 µg/mL, the MIC ([1]; strain KOX UFR223, genotype SHV-11, OXA-48) was “<=0.125 μg/mL” and the MIC ([1]; strain KOX UFR224, genotype CTX-M-15, OXA-48) was >128 µg/mL. The “MIC ATB in combination” value ([2]; EAE 49469, AF2 @ 8 μg/mL) was <0.25 µg/mL, the “MIC ATB in combination” value ([2]; EAE 49469, AF3 @ 8 μg/mL) was <0.25 µg/mL and the “MIC ATB in combination” value ([2]; EAE 49469, CLA @ 4 μg/mL) was >128 µg/mL. The “MIC ATB in combination” value ([2]; EAE 200261, AF2 @ 8 μg/mL) was 8 µg/mL, the “MIC ATB in combination” value ([2]; EAE 200261, AF3 @ 8 μg/mL) was <0.25 µg/mL and the “MIC ATB in combination” value ([2]; EAE 200261, CLA @ 4 μg/mL) was >128 µg/mL. For the same molecule, the “MIC ATB in combination” value ([2]; EAE UFR199, AF2 @ 8 μg/mL) was 0.5 µg/mL, the “MIC ATB in combination” value ([2]; EAE UFR199, AF3 @ 8 μg/mL) was “<=0.25 μg/mL” and the “MIC ATB in combination” value ([2]; EAE UFR199, CLA @ 4 μg/mL) was 16 µg/mL. For the same molecule, the “MIC ATB in combination” value ([2]; EAE UFR201, AF2 @ 8 μg/mL) was <0.25 µg/mL, the “MIC ATB in combination” value ([2]; EAE UFR201, AF3 @ 8 μg/mL) was <0.25 µg/mL and the “MIC ATB in combination” value ([2]; EAE UFR201, CLA @ 4 μg/mL) was “<=0.25 μg/mL”. For the same molecule, the “MIC ATB in combination” value ([2]; EAE UFR202, AF2 @ 8 μg/mL) was 16 µg/mL, the “MIC ATB in combination” value ([2]; EAE UFR202, AF3 @ 8 μg/mL) was 4 µg/mL and the “MIC ATB in combination” value ([2]; EAE UFR207, AF2 @ 8 μg/mL) was <0.25 µg/mL. For the same molecule, the “MIC ATB in combination” value ([2]; EAE UFR207, AF3 @ 8 μg/mL) was <0.25 µg/mL, the “MIC ATB in combination” value ([2]; EAE UFR207, CLA @ 4 μg/mL) was 1 µg/mL and the “MIC ATB in combination” value ([2]; EAE UFR213, AF2 @ 8 μg/mL) was 16 µg/mL. The “MIC ATB in combination” value ([2]; EAE UFR213, AF3 @ 8 μg/mL) was “<=0.25 μg/mL”, the MIC ([2]; strain EAE 49469, genotype AmpC) was >128 µg/mL and the MIC ([2]; strain EAE 200261, genotype TEM-x, AmpC) was >128 µg/mL. For the same molecule, the MIC ([2]; strain EAE UFR199, compound alone) was >1024 µg/mL, the MIC ([2]; strain EAE UFR199, genotype TEM-1b, SHV-12, KPC-2, OXA-9) was >1024 µg/mL and the MIC ([2]; strain EAE UFR201, genotype TEM-1, SHV-12, CTX-M-15) was >128 µg/mL. For the same molecule, the MIC ([2]; strain EAE UFR202, genotype TEM-24) was >128 µg/mL, the MIC ([2]; strain EAE UFR213, genotype TEM-24) was >128 µg/mL and the “MIC ATB in combination” value ([3]; PMI UFR82, AF2 @ 8 μg/mL) was <0.25 µg/mL. For the same molecule, the “MIC ATB in combination” value ([3]; PMI UFR82, AF3 @ 8 μg/mL) was <0.25 µg/mL, the “MIC ATB in combination” value ([3]; PMI UFR82, CLA @ 4 μg/mL) was 4 µg/mL and the “MIC ATB in combination” value ([3]; PMI UFR126, AF2 @ 8 μg/mL) was <0.25 µg/mL. For the same molecule, the “MIC ATB in combination” value ([3]; PMI UFR126, AF3 @ 8 μg/mL) was <0.25 µg/mL, the “MIC ATB in combination” value ([3]; PMI UFR126, CLA @ 4 μg/mL) was “<=0.25 μg/mL” and the “MIC ATB in combination” value ([3]; PMI UFR127, AF2 @ 8 μg/mL) was <0.25 µg/mL. For the same molecule, the “MIC ATB in combination” value ([3]; PMI UFR127, AF3 @ 8 μg/mL) was <0.25 µg/mL, the “MIC ATB in combination” value ([3]; PMI UFR127, CLA @ 4 μg/mL) was “<=0.25 μg/mL” and the “MIC ATB in combination” value ([3]; PMI UFR128, AF2 @ 8 μg/mL) was <0.25 µg/mL. For the same molecule, the “MIC ATB in combination” value ([3]; PMI UFR128, AF3 @ 8 μg/mL) was <0.25 µg/mL, the “MIC ATB in combination” value ([3]; PMI UFR128, CLA @ 4 μg/mL) was 0.5 µg/mL and the “MIC ATB in combination” value ([3]; PMI UFR129, AF2 @ 8 μg/mL) was <0.25 µg/mL. For the same molecule, the “MIC ATB in combination” value ([3]; PMI UFR129, AF3 @ 8 μg/mL) was <0.25 µg/mL, the “MIC ATB in combination” value ([3]; PMI UFR129, CLA @ 4 μg/mL) was “<=0.25 μg/mL” and the “MIC ATB in combination” value ([3]; PMI UFR130, AF2 @ 8 μg/mL) was <0.25 µg/mL. The “MIC ATB in combination” value ([3]; PMI UFR130, AF3 @ 8 μg/mL) was <0.25 µg/mL, the “MIC ATB in combination” value ([3]; PMI UFR130, CLA @ 4 μg/mL) was 8 µg/mL and the “MIC ATB in combination” value ([3]; PMI UFR133, AF2 @ 8 μg/mL) was <0.25 µg/mL. The “MIC ATB in combination” value ([3]; PMI UFR133, AF3 @ 8 μg/mL) was <0.25 µg/mL, the “MIC ATB in combination” value ([3]; PMI UFR133, CLA @ 4 μg/mL) was “<=0.25 μg/mL” and the “MIC ATB in combination” value ([3]; PMI UFR237, AF2 @ 8 μg/mL) was <0.25 µg/mL. The “MIC ATB in combination” value ([3]; PMI UFR237, AF3 @ 8 μg/mL) was <0.25 µg/mL.
